Test systems include COLO 205 colon; RXF 393 renal; SR leukemia; SF-539 CNS; A549 NSCLC; UO-31 renal; NCI-H226 lung; 786-0 renal; SF-268 CNS; HCT-116 colon.
Holding throughout (assay): NCI tumour cell line growth inhibition, 48 h

GI50 and TGI data for 10 compounds are collected here from PubChem BioAssay (NCI).

The structures appear in SMILES notation. Where “and” joins values, the source holds several entries; their conditions need not be identical. Equal entries are not always repeated.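 Growth conditions: 96-well plates. Treatment: test compound, 48 hours, 5 concentrations. Analysis: linear interpolation between bracketing concentrations; unreached endpoints set to highest concentration. At the GI50, growth is halved. At the TGI there is no net growth.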 Where only a bound is given, the exact number is not on record here.

For `CCN(CC)CCCOc1cc(O)c2c(=O)cc(-c3ccccc3)oc2c1`, the GI50 with COLO 205 colon was 4.21 µM; with RXF 393 renal, 11.6 µM; in the test on SR leukemia, 3.44 µM; with SF-539 CNS, 6.65 µM; with A549 NSCLC, 5.53 µM; in the test on UO-31 renal, 3.74 µM. Further, the results for the GI50 with NCI-H226 lung, in the test with 786-0 renal and in the test on SF-268 CNS were 13.6 µM, 11.3 µM and 10.1 µM, respectively. Also, the TGI in the test with COLO 205 colon worked out at 15.5 µM; in the test on RXF 393 renal, 28.8 µM; with SR leukemia it was 9.39 µM; in the test with SF-539 CNS, 19.5 µM; with A549 NSCLC, 22.5 µM; in the test with UO-31 renal it was 15.9 µM. In addition, the TGI in the test with NCI-H226 lung is 29.7 µM; in the test with 786-0 renal, 24.1 µM; in the test on SF-268 CNS it was 22.9 µM.
Consider `CO/N=C(/COc1c(-c2ccccc2)oc2ccccc2c1=O)c1ccc(OC)cc1`, for which the GI50 was > 100 µM in the test on COLO 205 colon; > 100 µM in the test with RXF 393 renal; 9.1 µM in the test with SR leukemia; > 100 µM with SF-539 CNS; > 100 µM with A549 NSCLC; 61.3 µM in the test on UO-31 renal. The GI50 with NCI-H226 lung, with 786-0 renal and with HCT-116 colon was > 100 µM in each case. Also, the TGI is > 100 µM with COLO 205 colon; > 100 µM in the test on RXF 393 renal; 53.4 µM in the test with SR leukemia; > 100 µM in the test on SF-539 CNS; > 100 µM with A549 NSCLC; > 100 µM in the test with UO-31 renal. In addition, the TGI with NCI-H226 lung, in the test with 786-0 renal and in the test on HCT-116 colon was > 100 µM throughout.
On to `Nc1ncnc2c(C3OC(CO)C(O)C3O)scc12` (centres undefined), for which the TGI with COLO 205 colon was 1.15 µM and 1.23 µM; with RXF 393 renal, 1.39 µM; in the test on SR leukemia it was 2.49 µM; with A549 NSCLC, 1.46 µM and 5.46 µM; in the test on UO-31 renal it was 4.56 µM; in the test with NCI-H226 lung, 0.731 µM. For the same compound, the TGI is 4.5 µM and 3.08 µM with 786-0 renal; 33.3 µM with SF-268 CNS; 1.12 µM and 2.72 µM in the test with HCT-116 colon. For the same compound, the figures for the GI50 with SR leukemia, in the test with 786-0 renal and with SF-268 CNS were 0.0621 µM, 0.168 µM and 1.41 µM, respectively.
`COc1cc2ccnc(-c3c4ccccc4c(N)c4c(OC)c(OC)ccc34)c2cc1OC`: the TGI was 3.09 µM with COLO 205 colon; 6.87 µM in the test with RXF 393 renal; 6.19 µM in the test on SR leukemia; 4.6 µM in the test on SF-539 CNS; 17.3 µM with A549 NSCLC; 13.5 µM in the test on UO-31 renal. Further, the TGI in the test with NCI-H226 lung came to 5.66 µM; in the test with 786-0 renal it was 11.5 µM; in the test with SF-268 CNS, 18.6 µM.
For `COc1c(NC(=O)CC(C)=O)[c]([Hg][O]C(C)=O)c(OC)c(Cl)[c]1[Hg][O]C(C)=O`, the GI50 with RXF 393 renal is 9.7 µM; with SR leukemia, 3.67 µM; in the test with SF-539 CNS, 2.72 µM; in the test on A549 NSCLC, 21.9 µM; in the test on UO-31 renal, 16.2 µM; in the test with NCI-H226 lung, 17.7 µM. In addition, the GI50 in the test on 786-0 renal was 6.47 µM; in the test with SF-268 CNS it was 12.8 µM; in the test with HCT-116 colon, 15.2 µM. Further, the TGI was 24.7 µM with RXF 393 renal; 82.1 µM with SR leukemia; 9.7 µM with SF-539 CNS; 47 µM in the test on A549 NSCLC; 29.7 µM in the test with UO-31 renal; 33.9 µM with NCI-H226 lung. In addition, the TGI with 786-0 renal was determined as 18.8 µM; in the test with SF-268 CNS, 28.5 µM; with HCT-116 colon, 31.8 µM.
On to `C#C[C@@]1(O)[C@@H](CO)O[C@@H](n2ccc3c(N)ncnc32)[C@@H]1O`, for which the GI50 in the test on COLO 205 colon was 0.679 µM; with RXF 393 renal it was 1.93 µM; in the test with SR leukemia it was 0.817 µM; with SF-539 CNS, 1.9 µM; with A549 NSCLC it was 1.31 µM; in the test on NCI-H226 lung it was 2.05 µM. Also, the figures for the GI50 with 786-0 renal, with SF-268 CNS and in the test with HCT-116 colon were 1.63 µM, 2.33 µM and 0.595 µM, respectively. In addition, the TGI is 2.67 µM in the test with COLO 205 colon; 4.6 µM in the test on RXF 393 renal; > 100 µM with SR leukemia; 4.44 µM in the test with SF-539 CNS; > 100 µM with A549 NSCLC; 4.85 µM with NCI-H226 lung. Moreover, the TGI was found to be 6.15 µM with 786-0 renal, 26.1 µM in the test on SF-268 CNS and 10.8 µM in the test with HCT-116 colon.
Consider `CC(=O)Nc1ccccc1-c1cnc2ccccc2n1`, for which the TGI with COLO 205 colon, with SR leukemia, in the test with SF-539 CNS, in the test with A549 NSCLC, in the test on NCI-H226 lung and with 786-0 renal was > 100 µM each time. For the same compound, the TGI with SF-268 CNS and in the test on HCT-116 colon was > 100 µM throughout.
Consider `COc1cc2c(c(OC)c1OC)-c1ccc(SC)c(=O)cc1[C@@H](NCc1cccc(C#N)c1)CC2`, for which the GI50 in the test with COLO 205 colon, with SF-539 CNS, with A549 NSCLC, in the test with UO-31 renal, in the test with NCI-H226 lung and with 786-0 renal was < 0.0075 µM each time. The GI50 in the test with SF-268 CNS and in the test with HCT-116 colon was < 0.0075 µM throughout. Moreover, the TGI is 0.0593 µM and < 0.0075 µM with COLO 205 colon; 12.2 µM in the test on SR leukemia; 0.0354 µM and < 0.0075 µM with SF-539 CNS; > 75 µM with A549 NSCLC; > 75 µM in the test on UO-31 renal; 0.0545 µM and < 0.0075 µM with NCI-H226 lung. In the test on 786-0 renal, the TGI was 20.9 µM.
As to `Cc1ccc(C2(O)CC(c3ccc([N+](=O)[O-])o3)=NN2C(=O)COc2ccccc2Cl)cc1` (centres undefined), the TGI is 24.1 µM in the test on COLO 205 colon; 23.1 µM in the test on SR leukemia; 48.4 µM in the test with SF-539 CNS; > 100 µM in the test on A549 NSCLC; > 100 µM with UO-31 renal; > 100 µM with NCI-H226 lung. The TGI in the test with 786-0 renal was > 100 µM; in the test with SF-268 CNS, > 76 µM; in the test on HCT-116 colon, > 87.4 µM.
Turning to `CN(C)CC/C(=N\Nc1ccc(Cl)c(Cl)c1)c1ccccc1`, the TGI in the test on COLO 205 colon worked out at 3.15 µM; in the test with RXF 393 renal, 8.47 µM; with SR leukemia, 5.58 µM; in the test on SF-539 CNS it was 3.47 µM; with A549 NSCLC, 3.8 µM; with UO-31 renal, 3.25 µM. Moreover, the TGI was determined as 3.37 µM in the test on 786-0 renal, 3.48 µM in the test on SF-268 CNS and 3.19 µM in the test on HCT-116 colon.
